Measured values: patent publication US8450357B2, “Compositions comprising an aryl pyrazole and/or a formamidine, methods and uses thereof” (Merial Limited, priority 2008, dated 2013)
Where two headings read alike, the source gives them in different places.

How the values were obtained:
[1] = Stability of amitraz in solution, aged at 50° C., HPLC; type: physicochemical; conditions: 28 % (w/v) Amitraz in Methyl isobutyl ketone (MIK)
Experimental: Formulation comprising amitraz in anisole (formulation L), butyl acetate (formulation M), methyl isobutyl ketone and ethyl benzoate were evaluated for stability by HPLC, similarly to the stability study for formulations comprising compound 1. Thus the formulations were tested for initial concentration of amitraz % (w/v) and aged at 50° C. for three months. The concentration of amitraz in each formulation was determined at 1 month, 2 months and 3 months to determine the stability of amitraz in each formulation.

[2] = tested on: ticks; assay: Efficacy of combination of fipronil with amitraz against ticks on dogs; type: in vivo; conditions: 10 mg/kg BW of actives, topical
Experimental: A fipronil formulation (commercial product) was prepared and stored separately from amitraz. Amitraz was formulated with the same carrier. Both parts, fipronil and amitraz in solvent(s) were stored separately and applied simultaneously. Amounts applied were calculated to keep dose at 10% (w/v) each in final formulation and 10 mg/kg BW of actives in amount applied.
In brief, treatment was applied by parting the hair on the midline of the neck, between the base of the skull and the shoulder blades, and applying the formulation directly onto the skin.

[3] = tested on: adult Rhipicephalus sanguineus ticks; assay: whole plant or invertebrate
Experimental: Fipronil was dissolved in acetone containing 0.019% of a mixture of Triton 152 and Triton 172 (1:3, v/v) and 0.4% DMSO to achieve the desired concentration. Dosages were serially diluted using this same formulation. For treatments containing amitraz, amitraz was added to the above solution to achieve the desired concentration. 0.5 ml of the solution was used to treat 20 ml scintillation vials containing a 0.125″ hole in the cap. […] Filter papers treated with this same solution were placed in the cap and bottom of the treated vial. Vials were capped and held over night at 24° C. and 95% RH after which 10 adult Rhipicephalus sanguineus ticks were placed into each vial. The vials were held under the same conditions mentioned above for the duration of the test. […]

[4] = 4 h, read-out: 4 hour % Mortality Rep 1
[5] = 4 h, read-out: 4 hour % Mortality Rep 2
[6] = 4 h, read-out: 4 hour Avg. % Mortality
[7] = 24 h, read-out: 24 hour % Mortality Rep 1
[8] = 24 h, read-out: 24 hour % Mortality Rep 2
[9] = 24 h, read-out: 24 hour Avg. % Mortality
[10] = 48 h, read-out: 48 hour % Mortality Rep 1
[11] = 48 h, read-out: 48 hour % Mortality Rep 2
[12] = 48 h, read-out: 48 hour Avg. % Mortality

In the case of `Cc1ccc(/N=C/N(C)/C=N/c2ccc(C)cc2C)c(C)c1` [Amitraz, amitraz], the Amitraz % theoretical ([1]; 1 month at 50° C.) is reported as 93 % theoretical, the Amitraz % theoretical ([1]; 2 months at 50° C.) is reported as 98 % theoretical and the Amitraz % theoretical ([1]; 3 months at 50° C.) is reported as 100 % theoretical. It also gave an Efficacy against ticks ([2]; 2 days after treatment) of 95.1%, an Efficacy against ticks ([2]; 16 days after treatment) of 96.9% and an Efficacy against ticks ([2]; 23 days after treatment) of 95.0%. For the same compound, the Efficacy against ticks ([2]; 30 days after treatment) was 64.9%, the Efficacy against ticks ([2]; 37 days after treatment) was 56.2% and the Efficacy against ticks ([2]; 44 days after treatment) was 28.3%. The mortality at 3.13 ppm [3, 4] was 0%, the mortality at 6.25 ppm [3, 4] was 0% and the mortality at 12.5 ppm [3, 4] was 0%. The mortality at 25 ppm [3, 4] was 0%, the mortality at 3.13 ppm [3, 5] was 0% and the mortality at 6.25 ppm [3, 5] was 0%. It also gave a mortality at 12.5 ppm [3, 5] of 0%, a mortality at 25 ppm [3, 5] of 0% and a mortality at 3.13 ppm [3, 6] of 0%. The mortality at 6.25 ppm [3, 6] was 0%, the mortality at 12.5 ppm [3, 6] was 0% and the mortality at 25 ppm [3, 6] was 0%. It also gave a mortality at 3.13 ppm [3, 7] of 0%, a mortality at 6.25 ppm [3, 7] of 0% and a mortality at 12.5 ppm [3, 7] of 0%. For the same compound, the mortality at 25 ppm [3, 7] was 0%, the mortality at 3.13 ppm [3, 8] was 0% and the mortality at 6.25 ppm [3, 8] was 0%. The mortality at 12.5 ppm [3, 8] was 0%, the mortality at 25 ppm [3, 8] was 0% and the mortality at 3.13 ppm [3, 9] was 0%. The mortality at 6.25 ppm [3, 9] was 0%, the mortality at 12.5 ppm [3, 9] was 0% and the mortality at 25 ppm [3, 9] was 0%. For the same compound, the mortality at 3.13 ppm [3, 10] was 0%, the mortality at 6.25 ppm [3, 10] was 0% and the mortality at 12.5 ppm [3, 10] was 0%. For the same compound, the mortality at 25 ppm [3, 10] was 0%, the mortality at 3.13 ppm [3, 11] was 0% and the mortality at 6.25 ppm [3, 11] was 0%. For the same compound, the mortality at 12.5 ppm [3, 11] was 0%, the mortality at 25 ppm [3, 11] was 0% and the mortality at 3.13 ppm [3, 12] was 0%. It also gave a mortality at 6.25 ppm [3, 12] of 0%, a mortality at 12.5 ppm [3, 12] of 0% and a mortality at 25 ppm [3, 12] of 0%.
